Test results: ChEMBL document CHEMBL5154745, “Synthesis and antiviral activities of quinazolinamine-coumarin conjugates toward chikungunya and hepatitis C viruses” (Eur J Med Chem, 2022)

Columns and labels:
[1] = Cytotoxicity against human HEL cells measured after 3 days by coulter counting method; format: toxicity, cell-based; conditions: time 3 day
[2] = Selectivity index, ratio of CC50 for cytotoxicity against human cells over EC50 for antiviral activity against CHIKV 899 infected in African green monkey Vero cells; format: toxicity, cell-based; conditions: read-out: Ratio CC50/EC50
[3] = system: Chikungunya virus; experiment: Antiviral activity against CHIKV 899 infected in African green monkey Vero cells measured after 7 days; format: functional, organism-based; conditions: Chikungunya virus, 899, Vero, 168 h
[4] = Lipophilicity, log P of the compound; format: physicochemical; conditions: octanol/water
[5] = system: Hepatitis C virus; experiment: Antiviral activity against HCV infected in human Huh-5-2 cells assessed as reduction in viral replication measured by Luciferase reporter gene assay; format: functional, organism-based, Hepacivirus hominis
[6] = system: Chikungunya virus; experiment: Antiviral activity against CHIKV assessed as inhibition of viral replication; format: functional, organism-based

Row | Compound | CC50 at 72 h [1] | selectivity ratio [2] | EC50 [3] | logP [4] | EC50 [5] | EC50 [6]
1 | COc1ccc(CNc2nc(S)nc3ccccc23)cc1 | > 336 µM | > 1 | 329 µM |  |  | 
2 | Sc1nc(Nc2ccncc2)c2ccccc2n1 | 242 µM | 1.1 | 220 µM |  |  | 
3 | CC(C)(C)c1ccc2oc(=O)cc(CSc3nc(Nc4ccncc4)c4ccccc4n3)c2c1 | 17.3 µM | 8.8 | 1.96 µM | 3.93 |  | 
4 | Cc1cccc(Nc2nc(SCc3cc(=O)oc4ccc(C(C)(C)C)cc34)nc3ccccc23)c1C | 150 µM | 10.8 | 13.9 µM | 5.04 | 16.6 µM | 
5 | CC(C)(C)c1ccc2oc(=O)cc(CSc3nc(Nc4cccc5ccccc45)c4ccccc4n3)c2c1 |  |  | > 193 µM |  |  | 
6 | COc1ccccc1Nc1nc(SCc2cc(=O)oc3ccc(C(C)(C)C)cc23)nc2ccccc12 | 51.9 µM | 16.8 | 3.08 µM | 4.76 |  | 
7 | Cc1ccc(Nc2nc(S)nc3ccccc23)c(C)c1 | 142 µM | 2.4 | 59.4 µM |  |  | 
8 | Sc1nc(Nc2cccc3ccccc23)c2ccccc2n1 | 118 µM | 7.4 | 16.1 µM |  |  | 
9 | Cc1cc(C)nc(Nc2nc(S)nc3ccccc23)c1 |  |  | > 33.2 µM |  |  | 
10 | Cc1cccc(Nc2nc(S)nc3ccccc23)c1C | 131 µM | 3.4 | 39.1 µM |  |  | 
11 | CC(C)(C)c1ccc2oc(=O)cc(CSc3nc(Nc4ccccc4)c4ccccc4n3)c2c1 | 147 µM | 37.2 | 3.95 µM | 4.88 |  | 
12 | Cc1ccc(Nc2nc(SCc3cc(=O)oc4ccc(C(C)(C)C)cc34)nc3ccccc23)c(C)c1 | 84.6 µM |  | 3.11 µM | 5.03 | 27.9 µM | 
13 | COc1cc2oc(=O)cc(CSc3nc(Nc4ccccc4)c4ccccc4n3)c2cc1OC |  |  | > 212 µM |  |  | 
14 | COc1ccccc1Nc1nc(S)nc2ccccc12 | 290 µM | 1.3 | 224 µM |  |  | 
15 | Cc1ccc2oc(=O)cc(CSc3nc(Nc4ccccc4)c4ccccc4n3)c2c1 |  |  | > 47 µM |  |  | 
16 | CC(C)(C)c1ccc2oc(=O)cc(CSc3nc(N(Cc4ccccc4)c4ccccc4)c4ccccc4n3)c2c1 |  |  | > 180 µM |  |  | 
17 | O=c1cc(CSc2nc(Nc3ccccc3)c3ccccc3n2)c2ccc(O)cc2o1 |  |  | > 234 µM |  |  | 
18 | Cc1cc(C)nc(Nc2nc(SCc3cc(=O)oc4ccc(C(C)(C)C)cc34)nc3ccccc23)c1 |  |  | > 151 µM |  |  | 
19 | COc1ccc(CNc2nc(SCc3cc(=O)oc4ccc(C(C)(C)C)cc34)nc3ccccc23)cc1 | > 147 µM | > 1.7 | 85.3 µM |  |  | 
20 | Sc1nc(Nc2ccccc2)c2ccccc2n1 | 275 µM | 2.5 | 108 µM |  |  | 
21 | O=c1ccc2ccccc2o1 [COUMARIN] | > 500 µM |  |  |  | > 150 µM | 
22 | Cc1ccc(C(=O)Nc2ccc(S(=O)(=O)O)c3cc(S(=O)(=O)O)cc(S(=O)(=O)O)c23)cc1NC(=O)c1cccc(NC(=O)Nc2cccc(C(=O)Nc3cc(C(=O)Nc4ccc(S(=O)(=O)O)c5cc(S(=O)(=O)O)cc(S(=O)(=O)O)c45)ccc3C)c2)c1 [SURAMIN] |  |  |  |  |  | 80 µM
